In US20250136612A1, “4',5'-DIHYDROSPIRO[PIPERIDINE-4,7'-THIENO[2,3-C]PYRAN] DERIVATIVES AS INHIBITORS OF APOL1 AND METHODS OF USING SAME” (VERTEX PHARMACEUTICALS INCORPORATED, priority 2022, published 2025):

Biological target: T1, APOL1 (Homo sapiens, UniProt O14791)
T1 sequence (O14791 1-398 S342G/I384M): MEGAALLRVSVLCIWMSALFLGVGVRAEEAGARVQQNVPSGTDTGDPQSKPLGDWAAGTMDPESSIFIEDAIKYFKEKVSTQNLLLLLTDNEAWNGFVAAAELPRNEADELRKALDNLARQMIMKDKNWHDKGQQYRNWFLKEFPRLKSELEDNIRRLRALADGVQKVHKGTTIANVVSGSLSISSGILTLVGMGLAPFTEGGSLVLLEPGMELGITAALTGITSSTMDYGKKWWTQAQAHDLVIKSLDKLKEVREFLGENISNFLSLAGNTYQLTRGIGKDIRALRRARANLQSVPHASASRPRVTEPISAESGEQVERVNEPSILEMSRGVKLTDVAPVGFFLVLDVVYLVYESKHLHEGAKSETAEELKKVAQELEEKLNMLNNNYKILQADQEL
Assay: MultiTox-Fluor Multiplex Cytotoxicity Assay in tet-inducible APOL1 T-REx-HEK293 cells
Format: cell-based
Settings: 50 ng/mL tet, 24 hours, ratio of dead to live cells, read-out: IP50 (i.e., IC50 for cell proliferation)
Procedure: The MultiTox-Fluor Multiplex Cytotoxicity Assay is a single-reagent-addition, homogeneous, fluorescence assay that measures the number of live and dead cells simultaneously in culture wells. The assay measures cell viability and cytotoxicity by detecting two distinct protease activities. The live-cell protease activity is restricted to intact viable cells and is measured using a fluorogenic, cell-permeant peptide glycyl-phenylalanylamino fluorocoumarin (GF-AFC) substrate. The substrate enters intact cells, where it is cleaved to generate a fluorescent signal proportional to the number of living cells. […] A second, cell-impermeant, fluorogenic peptide substrate (bis-AAF-R110 Substrate) is used to measure dead-cell protease that has been released from cells that have lost membrane integrity. A ratio of dead to live cells is used to normalize data.
Briefly, the tet-inducible transgenic APOL1 T-REx-HEK293 cell lines were incubated with 50 ng/mL tet to induce APOL1 in the presence of 3-(2-(4-fluorophenyl)-1H-indol-3-yl)-N-((3S,4R)-4-hydroxy-2-oxopyrrolidin-3-yl)propenamide at 10.03, 3.24, 1.13, 0.356, 0.129, 0.042, 0.129, 0.0045, 0.0015, 0.0005 μM in duplicate for 24 hours in a humidified 37° C. incubator. The MultiTox reagent was added to each well and placed back in the incubator for an additional 30 minutes. The plate was read on the EnVision plate reader. A ratio of dead to live cells was used to normalize, and data was imported, analyzed, and fit using Genedata Screener (Basel, Switzerland) software. Data was normalized using percent of control, no tet (100% viability), and 50 ng/mL tet treated (0% viability),and fit using Smart Fit. The reagents, methods, and complete protocol for the MultiTox assay are described below.
Human embryonic kidney (HEK293) cell lines containing a tet-inducible expression system (T-REx™; Invitrogen, Carlsbad, CA) and Adeno-associated virus site 1 pAAVS1-Puro-APOL1 G0 or pAAVS1-Puro-APOL1 G1 or pAAVS1-Puro-APOL1 G2 Clones G0 DC2.13, G1 DC3.25, and G2 DC4.44 were grown in a T-225 flask at ˜90% confluency in cell growth media (DMEM, 10% Tet-free FBS, 2 mM L-glutamine, 100 Units/mL penicillin-streptomycin, 5 μg/mL blasticidin S HCl, 1 μg/mL puromycin dihydrochloride). Cells were washed with DPBS and then trypsinized to dissociate from the flask. Media was used to quench the trypsin, cells were then pelleted at 200 g and resuspended in fresh cell assay media (DMEM, 2% Tet-free FBS, 2 mM L-glutamine, 100 Units/mL penicillin-streptomycin). Cells were counted and diluted to 1.17×10^6 cells/mL. 20 μL of cells (23,400/well) were dispensed in every well of a 384-well Poly-D-Lysine coated plate using the Multidrop dispenser. The plates were then incubated at room temperature for one hour.
Tetracycline is needed to induce APOL1 expression. 1 mg/mL tet stock in water was diluted to 250 ng/mL (5×) in cell assay media. 60 μL of cell assay media (no tet control) was dispensed in columns 1 and 24, and 60 μL of 5×tet in 384-PP-round bottom plate was dispensed in columns 2 to 23 with the Multidrop dispenser.
Assay ready plates from the Global Compound Archive were ordered using template 384_APOL1Cell_DR10n2_50 uM_v3. Compounds were dispensed at 200 nL in DMSO. The final top concentration was 10 μM with a 10 point 3-fold dilution in duplicate in the MultiTox assay.
20 μL was transferred from the 5×tet plate to the ARP and mixed, then 5 μL of 5×tet and the compounds were transferred to the cell plate and mixed using the Bravo. The cell plate was placed in the humidified 37° C. 5% CO2 incubator for 24 hours.
The MultiTox-Fluor Multiplex Cytotoxicity Assay was performed in accordance with the manufacturer's protocol. After cells were incubated with tet and compound for 24 hours, 25 μL of 1×MultiTox reagent was added to each well using the Multidrop dispenser; the plates were placed on a plate shaker (600 rpm) for 2 minutes, then centrifuged briefly and placed back in the 37° C. incubator for 30 minutes. […]

Row | SMILES | IC50 [nM]
1 | Cn1cc([C@@H]2C[C@]3(CCN2)OCCc2cc(Cl)sc23)nn1 (single isomer, unassigned) [Compound 2] | 100 to 500
2 | Cc1cc([C@@H]2C[C@]3(CCN2)OCCc2cc(Cl)sc23)no1 (single isomer, unassigned) [Compound 23] | 100 to 500
3 | Cn1cc([C@@H]2C[C@]3(CCN2)OCCc2cc(Cl)sc23)cn1 (single isomer, unassigned) [Compound 24] | < 100
4 | Cc1cc([C@@H]2C[C@]3(CCN2)OCCc2cc(Cl)sc23)on1 (single isomer, unassigned) [Compound 25] | 100 to 500
5 | CCc1cc2c(s1)CCOC21CCNC(C2CC2)C1 (single isomer, unassigned) [Compound 29, 2′-cyclopropyl-2-ethyl-spiro[6,7-dihydrothieno[3,2-c]pyran-4,4′-piperidine]] | 500 to 1000
6 | Cn1cc([C@@H]2C[C@]3(CCN2)OCCc2cc(C4CC4)sc23)nn1 (single isomer, unassigned) [Compound 31] | 100 to 500
7 | Cc1cc2c(s1)C1(CCN[C@H](c3cn(C)nn3)C1)OCC2 (single isomer, unassigned) [Compound 32] | 100 to 500
8 | Cn1cc([C@@H]2C[C@]3(CCN2)OCC(C)(O)c2cc(Cl)sc23)nn1 (single isomer, unassigned) [Compound 37] | 500 to 1000
9 | Cn1cc([C@@H]2C[C@]3(CCN2)OCC(C)(O)c2cc(Cl)sc23)nn1 (single isomer, unassigned) [Compound 38] | 100 to 500
10 | Cn1cc([C@@H]2C[C@]3(CCN2)OCC(O)(C(F)F)c2cc(Cl)sc23)nn1 (single isomer, unassigned) [Compound 39] | 500 to 1000
11 | Cn1cc([C@@H]2C[C@]3(CCN2)OCC(O)(C(F)F)c2cc(Cl)sc23)nn1 (single isomer, unassigned) [Compound 40] | < 100
12 | COC1CO[C@]2(CCN[C@H](c3cn(C)nn3)C2)c2sc(Cl)cc21 (single isomer, unassigned) [Compound 42] | 500 to 1000
13 | Cn1cc(C2CC3(CCN2)OCC(O)c2cc(Br)sc23)nn1 (single isomer, unassigned) [Compound 44, 2-bromo-2′-(1-methyltriazol-4-yl)spiro[4,5-dihydrothieno[2,3-c]pyran-7,4′-piperidine]-4-ol] | 500 to 1000
14 | Cn1cc(C2CC3(CCN2)OCC(O)c2cc(Br)sc23)nn1 (single isomer, unassigned) [Compound 45, 2-bromo-2′-(1-methyltriazol-4-yl)spiro[4,5-dihydrothieno[2,3-c]pyran-7,4′-piperidine]-4-ol] | < 100
15 | CC(O)c1c(C(F)(F)F)sc2c1CCOC21CCN[C@H](c2cn(C)nn2)C1 (single isomer, unassigned) [Compound 52] | 100 to 500
16 | CC(O)c1c(C(F)(F)F)sc2c1CCOC21CCN[C@H](c2cn(C)nn2)C1 (single isomer, unassigned) [Compound 53] | < 100
17 | CCc1cc2c(s1)CCOC21CCNC(c2ccc(F)cc2)C1 (single isomer, unassigned) [Compound 78, 2-ethyl-2′-(4-fluorophenyl)spiro[6,7-dihydrothieno[3,2-c]pyran-4,4′-piperidine]] | 500 to 1000
18 | Cc1ncc(C2CC3(CCN2)OCCc2cc(Cl)sc23)cn1 (stereo not shown) [Compound 1, 2-chloro-2′-(2-methylpyrimidin-5-yl)spiro[4,5-dihydrothieno[2,3-c]pyran-7,4′-piperidine]] | 100 to 500
19 | CCc1cc2c(s1)CCOC21CCNC(C2CC2)C1 (stereo not shown) [Compound 3, 2′-cyclopropyl-2-ethyl-spiro[6,7-dihydrothieno[3,2-c]pyran-4,4′-piperidine]] | 100 to 500
20 | CCc1cc2c(s1)C1(CCNC(c3cn(C)nn3)C1)OCC2 (stereo not shown) [Compound 4] | 100 to 500
21 | Cn1cc(C2CC3(CCN2)OCCc2cc(C(F)(F)F)sc23)nn1 (stereo not shown) [Compound 5] | < 100
22 | CCc1cc2c(s1)C1(CCNC(c3cc(C)no3)C1)OCC2 (stereo not shown) [Compound 6] | < 100

Row | SMILES | IC50 [nM]
23 | CCc1cc2c(s1)CCOC21CCNC(c2cnn(CCS(C)(=O)=O)c2)C1 (stereo not shown) [Compound 7] | 100 to 500
24 | CCc1cc2c(s1)C(C)COC21CCNC(c2cn(C)nn2)C1 (stereo not shown) [Compound 9] | 100 to 500
25 | CCc1cc2c(s1)CCOC21CCNC(c2cn(C)nn2)C1 (stereo not shown) [Compound 10] | 100 to 500
26 | Cn1cc(C2CC3(CCN2)OCCc2sc(Cl)cc23)nn1 (stereo not shown) [Compound 11] | 500 to 1000
27 | Cn1cnc(C2CC3(CCN2)OCCc2cc(Cl)sc23)c1 (stereo not shown) [Compound 12] | 500 to 1000
28 | CCc1cc2c(s1)CCOC21CCNC(c2cn[nH]c2)C1 (stereo not shown) [Compound 13] | 500 to 1000
29 | OCCn1cc(C2CC3(CCN2)OCCc2cc(Cl)sc23)cn1 (stereo not shown) [Compound 14] | 500 to 1000
30 | CCc1cc2c(s1)CCOC21CCNC(c2ccnnc2)C1 (stereo not shown) [Compound 15] | 500 to 1000
31 | CCc1cc2c(s1)CCOC21CCNC(C2(C)COC2)C1 (stereo not shown) [Compound 16] | 500 to 1000
32 | Cn1ncc(C2CC3(CCN2)OCCc2cc(Cl)sc23)n1 (stereo not shown) [Compound 17] | 500 to 1000
33 | CCc1cc2c(s1)CCOC21CCNC(c2cnc(C)nc2)C1 (stereo not shown) [Compound 18] | 500 to 1000
34 | Clc1cc2c(s1)C1(CCNC(C3CC3)C1)OCC2 (stereo not shown) [Compound 19] | 500 to 1000
35 | Cc1cc2c(s1)CCOC21CCNC(C2CC2)C1 (stereo not shown) [Compound 20] | 500 to 1000
36 | FC(F)(F)c1cc2c(s1)CCOC21CCNC(C2CC2)C1 (stereo not shown) [Compound 21] | 100 to 500
37 | Cn1cc([C@@H]2C[C@]3(CCN2)OCCc2cc(Br)sc23)nn1 [Compound 22] | < 100
38 | Clc1cc2c(s1)[C@@]1(CCN[C@H](c3cn[nH]c3)C1)OCC2 [Compound 26] | < 100
39 | CC1CO[C@]2(CCN[C@H](c3cn(C)nn3)C2)c2cc(Cl)sc21 (stereo partly shown) [Compound 28] | 100 to 500
40 | Cn1cc([C@@H]2CC3(CCN2)OCCc2cc(C4CC4)sc23)nn1 (stereo partly drawn) [Compound 30, (2S)-2′-cyclopropyl-2-(1-methyl-1H-1,2,3-triazol-4-yl)-4′,5′-dihydrospiro[piperidine-4,7′-thieno[2,3-c]pyran]] | 500 to 1000
41 | Cn1cc([C@@H]2C[C@]3(CCN2)OCCc2cc(I)sc23)nn1 [Compound 33, (2S,4S)-2′-iodo-2-(1-methyl-1H-1,2,3-triazol-4-yl)-4′,5′-dihydrospiro[piperidine-4,7′-thieno[2,3-c]pyran]] | < 100
42 | Cc1cc([C@@H]2C[C@]3(CCN2)OCC(O)c2cc(Cl)sc23)on1 (stereo partly drawn) [Compound 34, (2S,4S)-2′-chloro-2-(3-methylisoxazol-5-yl)-4′,5′-dihydrospiro[piperidine-4,7′-thieno[2,3-c]pyran]-4′-ol] | 100 to 500
43 | Cn1cc([C@@H]2C[C@]3(CCN2)OCC(O)c2cc(Cl)sc23)nn1 (stereo partly drawn) [Compound 35, (2S,4S)-2′-chloro-2-(1-methyl-1H-1,2,3-triazol-4-yl)-4′,5′-dihydrospiro[piperidine-4,7′-thieno[2,3-c]pyran]-4′-ol] | 100 to 500
